Some results are limits rather than exact numbers.

The nature of one data set: in vitro. The note with it: human, blood and plasma.
Data set [1] concerns the target T1, UDP-glucuronosyltransferase 2B7 (Homo sapiens, UniProt P16662).
T1 sequence (P16662 whole entry): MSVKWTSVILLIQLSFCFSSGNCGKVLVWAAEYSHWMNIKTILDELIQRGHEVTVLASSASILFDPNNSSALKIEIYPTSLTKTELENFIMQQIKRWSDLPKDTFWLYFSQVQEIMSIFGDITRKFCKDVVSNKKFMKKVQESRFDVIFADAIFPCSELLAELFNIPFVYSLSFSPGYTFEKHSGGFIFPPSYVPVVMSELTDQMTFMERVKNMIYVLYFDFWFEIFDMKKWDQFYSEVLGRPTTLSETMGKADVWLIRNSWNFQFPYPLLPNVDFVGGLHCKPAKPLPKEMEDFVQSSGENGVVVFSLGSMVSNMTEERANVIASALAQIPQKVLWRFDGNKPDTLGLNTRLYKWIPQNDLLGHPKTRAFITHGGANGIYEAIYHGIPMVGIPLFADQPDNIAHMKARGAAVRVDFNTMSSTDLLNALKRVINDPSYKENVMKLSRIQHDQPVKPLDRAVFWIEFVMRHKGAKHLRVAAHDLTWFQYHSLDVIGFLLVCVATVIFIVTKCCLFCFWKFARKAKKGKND
Kind of data set: Activity of human UGT2B7 expressed in insect cells assessed as reduction in compound level after 30 mins. It is filed as ADME. The note with it: 0.5 h.

Data set [2] is described as follows: Intrinsic clearance in human intestinal microsomes assessed CYP450-mediated glucuronidation clearance. The conditions noted are these: microsomes.
Data set [3] in a line: Unbound intrinsic clearance in human intestinal microsomes assessed UGT-mediated glucuronidation clearance.
The nature of data set [4]: Apparent permeability by PAMPA method.
Data set [5] in a line: Unbound intrinsic clearance in human intestinal microsomes assessed CYP450-mediated glucuronidation clearance.
Data set [6] can be described thus: Bioavailability in human. Type of data set: ADME, organism-based. The conditions noted are these: in vivo.
Data set [7] can be described thus: Unbound fraction during UGT-mediated glucuronidation in human intestinal microsomes.
Data set [8] can be described thus: Intrinsic clearance in human intestinal microsomes assessed UGT-mediated glucuronidation clearance.
For data set [9], the target named is T2, UDP-glucuronosyltransferase 2B15 (Homo sapiens, UniProt P54855).
T2 sequence (P54855 whole entry): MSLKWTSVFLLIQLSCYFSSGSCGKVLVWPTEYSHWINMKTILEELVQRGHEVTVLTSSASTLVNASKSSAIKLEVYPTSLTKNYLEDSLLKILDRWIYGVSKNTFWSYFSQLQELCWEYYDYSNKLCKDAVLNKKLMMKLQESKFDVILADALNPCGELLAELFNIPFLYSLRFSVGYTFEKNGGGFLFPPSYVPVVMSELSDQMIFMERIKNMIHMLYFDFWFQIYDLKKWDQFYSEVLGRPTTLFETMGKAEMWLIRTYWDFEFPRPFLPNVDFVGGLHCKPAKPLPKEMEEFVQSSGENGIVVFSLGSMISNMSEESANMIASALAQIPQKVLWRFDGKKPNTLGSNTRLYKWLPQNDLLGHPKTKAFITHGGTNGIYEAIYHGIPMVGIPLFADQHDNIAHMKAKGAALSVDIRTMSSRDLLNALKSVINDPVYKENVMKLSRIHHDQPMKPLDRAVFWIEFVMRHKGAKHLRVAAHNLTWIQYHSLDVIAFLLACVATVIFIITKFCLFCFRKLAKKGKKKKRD
Nature of the data set: Activity of human UGT2B15 expressed in insect cells assessed as reduction in compound level after 30 mins. Type of data set: ADME. The conditions noted are these: 0.5 h.

For data set [10], the target named is T3, UDP-glucuronosyltransferase 1A9 (Homo sapiens, UniProt O60656).
T3 sequence (O60656 whole entry): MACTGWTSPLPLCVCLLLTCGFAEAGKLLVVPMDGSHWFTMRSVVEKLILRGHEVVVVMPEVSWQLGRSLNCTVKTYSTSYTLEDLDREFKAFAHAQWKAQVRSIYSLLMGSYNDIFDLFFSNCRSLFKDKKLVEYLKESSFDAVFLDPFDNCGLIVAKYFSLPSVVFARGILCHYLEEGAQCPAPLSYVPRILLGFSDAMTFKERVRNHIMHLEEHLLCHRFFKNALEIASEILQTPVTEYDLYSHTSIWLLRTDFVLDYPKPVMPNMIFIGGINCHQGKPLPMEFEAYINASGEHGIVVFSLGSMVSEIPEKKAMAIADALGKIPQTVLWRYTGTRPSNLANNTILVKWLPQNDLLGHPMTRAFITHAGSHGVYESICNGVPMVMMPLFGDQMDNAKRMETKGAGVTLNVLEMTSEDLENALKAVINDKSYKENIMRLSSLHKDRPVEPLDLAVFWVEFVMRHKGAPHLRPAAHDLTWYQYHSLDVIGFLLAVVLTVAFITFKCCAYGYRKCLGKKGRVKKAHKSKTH
Kind of data set: Activity of human UGT1A9 expressed in insect cells assessed as reduction in compound level after 30 mins. It is filed as ADME. The conditions noted are these: 0.5 h.

Data set [11] addresses T4, UDP-glucuronosyltransferase 1A7 (Homo sapiens, UniProt Q9HAW7).
T4 sequence (Q9HAW7 whole entry): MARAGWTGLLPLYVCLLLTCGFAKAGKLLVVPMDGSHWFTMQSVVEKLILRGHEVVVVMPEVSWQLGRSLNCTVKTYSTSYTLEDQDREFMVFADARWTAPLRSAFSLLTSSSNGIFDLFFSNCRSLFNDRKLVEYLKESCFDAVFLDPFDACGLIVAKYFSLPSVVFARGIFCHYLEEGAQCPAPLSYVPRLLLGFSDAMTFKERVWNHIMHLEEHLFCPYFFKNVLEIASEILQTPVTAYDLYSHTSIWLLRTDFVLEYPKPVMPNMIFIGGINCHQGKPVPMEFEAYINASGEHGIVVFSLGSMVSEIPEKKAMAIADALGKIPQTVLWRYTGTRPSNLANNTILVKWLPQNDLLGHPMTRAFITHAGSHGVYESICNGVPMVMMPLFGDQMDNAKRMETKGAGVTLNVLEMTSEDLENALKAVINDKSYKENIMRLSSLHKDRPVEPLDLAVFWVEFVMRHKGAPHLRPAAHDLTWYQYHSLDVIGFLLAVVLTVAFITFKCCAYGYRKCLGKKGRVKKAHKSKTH
Kind of data set: Activity of human UGT1A7 expressed in insect cells assessed as reduction in compound level after 30 mins. It is filed as ADME. The conditions noted are these: 0.5 h.

A further data set is described as follows: clinical. The note with it: human, in vivo.
The target of data set [12] is T5, UDP-glucuronosyltransferase 1A1 (Homo sapiens, UniProt P22309).
T5 sequence (P22309 whole entry): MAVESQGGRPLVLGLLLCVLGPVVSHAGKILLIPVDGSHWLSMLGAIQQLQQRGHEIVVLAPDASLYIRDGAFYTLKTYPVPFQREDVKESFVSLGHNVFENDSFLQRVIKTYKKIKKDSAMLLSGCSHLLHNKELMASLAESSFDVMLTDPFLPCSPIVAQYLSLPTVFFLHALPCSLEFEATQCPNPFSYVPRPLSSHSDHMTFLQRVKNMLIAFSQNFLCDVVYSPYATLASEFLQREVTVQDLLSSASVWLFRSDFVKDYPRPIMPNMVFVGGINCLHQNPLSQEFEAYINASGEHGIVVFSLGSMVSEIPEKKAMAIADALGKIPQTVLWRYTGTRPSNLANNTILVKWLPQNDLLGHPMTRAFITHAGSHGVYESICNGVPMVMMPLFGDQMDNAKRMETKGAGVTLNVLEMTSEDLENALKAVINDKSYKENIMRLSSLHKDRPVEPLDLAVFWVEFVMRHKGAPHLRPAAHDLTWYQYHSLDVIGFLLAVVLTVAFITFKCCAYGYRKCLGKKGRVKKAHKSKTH
Kind of data set: Activity of human UGT1A1 expressed in insect cells assessed as reduction in compound level after 30 mins. It is filed as ADME. The note with it: 0.5 h.

Description for in vitro: Ratio of drug level in blood to plasma in human

Take `Cc1ccc(C)c(OCCCC(C)(C)C(=O)O)c1` [GEMFIBROZIL]: the blood plasma ratio in “in vitro” stood at 0.58. For the same compound, in data set [1], the Drug metabolism entry is “metabolite_detected”. The CL entry in data set [2] is “metabolite_not_detected”. For the same compound, the CL free in data set [3] is 17.5 µL/min/mg; in [5], “metabolite_not_detected”. In [4], the Papp is less than 0.1 ×10⁻⁶ cm/s. Further, in [6], the bioavailability was determined as 100%. The unbound share (fraction unbound) in [7] (microsomes) was 0.97. The same compound showed an intrinsic metabolic clearance (microsomal CLint) in [8] (microsomes) of 17 µL/min/mg.
Turning to `Cc1c(Cl)cccc1Nc1ccccc1C(=O)O` [TOLFENAMIC ACID], the blood plasma ratio in the data set “in vitro” is 0.66. Further, the Drug metabolism result in data set [1], in data set [9], in [10], in [11] and in [12] was “metabolite_detected” each time. This compound also yielded a CL free in [3] of 176 µL/min/mg. Moreover, the apparent permeability coefficient (Papp) in [4] is 14 ×10⁻⁶ cm/s. In “clinical”, this compound displayed a clearance of 2.2 mL/min/kg. For the same compound, the fraction unbound in data set [7] (intestinal microsomes) turned out to be 0.88. Besides, in [8] (intestinal microsomes), the microsomal CLint was 155 µL/min/mg.

These data come from ChEMBL document CHEMBL3525973, “Quantitative prediction of human intestinal glucuronidation effects on intestinal availability of UDP-glucuronosyltransferase substrates using in vitro data” (Drug Metab Dispos, 2012).
